Data from US11547681B2, “N-acylethanolamide derivatives and uses thereof” (ELIEM THERAPEUTICS, INC., priority 2016, dated 2023).

Experiments:
[1] = Intestinal S9 fraction stability, human; details: for microsomal CLint / half-life: both, human
Outline: (§1)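 Test article (1 μM final) pre-equilibrated with intestinal S9 at 37 °C, then reaction started with cofactor cocktail; sampled at 0, 10, 20, 30 and 60 min and quenched in acidified acetonitrile. Prodrug and released PEA quantified by LC-MS/MS; half-life from single-phase exponential fit of percent remaining versus time 0.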

[2] = Intestinal S9 fraction stability, rat
Outline: as §1

[3] = control compound, rat intestinal S9 fraction

In the case of `C[C@]12CC[C@H]3[C@@H](CCC4=CC(=O)CC[C@@]43C)[C@@H]1CC[C@@H]2O` [Testosterone, testosterone, reference compound], the microsomal CLint ([1]; s9, CLint, Control Compound, Human intestinal S9 fraction) is reported as 50.9 µL/min/mg, the microsomal CLint ([1]; s9, CLint, Human intestinal S9 fraction, control compound) is reported as 50.9 µL/min/mg and the microsomal CLint ([1]; s9, Clint, control compound, Example 4 control run) is reported as 26.9 µL/min/mg. The half-life ([1]; s9, Half-life (min), control compound, human intestinal S9 fraction) was 0.13 h, the half-life ([1]; s9, Half-life, control compound, Example 4 control run) was 0.433 h and the half-life ([1]; s9, Half-life, control compound, human intestinal S9 fraction) was 0.08 h. For the same compound, the CLin ([1]; control compound, human intestinal S9 fraction) was 0.144 ml/min/mg protein, the CLin [2, 3] was less than 0.0116 ml/min/mg protein and the “CLin, calculated value in parentheses” value [2, 3] was 0.0068 ml/min/mg protein. It also gave a microsomal CLint ([2]; male, Sprague-Dawley, rat, s9, CLint (ml/min/mg protein), calculated value in parentheses, control compound, rat intestinal S9 fraction, calculated value beyond duration of experiment) of 6.52 µL/min/mg, a microsomal CLint ([2]; male, Sprague-Dawley, rat, s9, CLint (ml/min/mg protein), control compound, rat intestinal S9 fraction) of less than 11.6 µL/min/mg and a microsomal CLint ([2]; male, Sprague-Dawley, rat, s9, CLint, Control Compound, Rat intestinal S9 fraction) of less than 11.6 µL/min/mg. It also gave a microsomal CLint ([2]; male, Sprague-Dawley, rat, s9, CLint, Rat intestinal S9 fraction, control compound) of less than 11.6 µL/min/mg, a microsomal CLint ([2]; male, Sprague-Dawley, rat, s9, Clint, control compound, Example 4 control run) of 5.97 µL/min/mg and a half-life ([2]; male, Sprague-Dawley, rat, s9, Half-life (min), calculated value in parentheses, control compound, rat intestinal S9 fraction, calculated value beyond duration of experiment) of 1.77 h. The half-life ([2]; male, Sprague-Dawley, rat, s9, Half-life (min), control compound, rat intestinal S9 fraction) was greater than 1 h, the half-life ([2]; male, Sprague-Dawley, rat, s9, Half-life, Control Compound, Rat intestinal S9 fraction) was greater than 1 h and the half-life at 1 μM ([2]; male, Sprague-Dawley, rat, s9, Half-life, Rat intestinal S9 fraction) was greater than 1 h. For the same compound, the half-life ([2]; male, Sprague-Dawley, rat, s9, Half-life, calculated value in parentheses, control compound, rat intestinal S9 fraction) was 1.7 h, the half-life ([2]; male, Sprague-Dawley, rat, s9, Half-life, control compound, Example 4 control run) was 1.93 h and the half-life ([2]; male, Sprague-Dawley, rat, s9, Half-life, control compound, rat intestinal S9 fraction) was greater than 1 h.
